Tested on: CAL-120
Assay: normalised viability (% of control), CellTiter-Blue; higher = more viable cells (about 100 = DMSO control)
Settings: 1000 nM; incubation time: 72 h
Outline: (§1)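 Seeded at 20 µl suspension per well onto compound-loaded 384-well plates, breast cancer cell lines were incubated 72 h. CellTiter-Blue fluorescence at 560/590 nm was then read, with each plate normalised to vehicle (100) and a positive kill control (0). Normalised viability is reported at a single listed concentration of the series.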

| SMILES | normalised viability |
| --- | --- |
| Nc1nc(Cl)nc2c1ncn2[C@@H]1O[C@H](CO)[C@@H](O)[C@@H]1F [Clofarabine] | 47.7% |
| CCN(CC)CCOc1ccc(C(=C(Cl)c2ccccc2)c2ccccc2)cc1 [Clomifene] | 95.3% |
| C[C@@H]1C[C@H]2[C@@H]3CCC4=CC(=O)C=C[C@]4(C)[C@@]3(F)[C@@H](O)C[C@]2(C)[C@@]1(O)C(=O)CO [Dexamethasone] | 77% |
| CC(C)C(=O)Nc1ccc([N+](=O)[O-])c(C(F)(F)F)c1 [Flutamide] | 95.6% |
| COc1cc2c(Oc3ccc(NC(=O)C4(C(=O)Nc5ccc(F)cc5)CC4)cc3F)ccnc2cc1OCCCN1CCOCC1 [Foretinib] | 41.8% |
| O=NN(CCCl)C(=O)NC1CCCCC1 [Lomustine] | 91.3% |
| O=C(O)CC[C@H]1CC[C@@](c2cc(F)ccc2F)(S(=O)(=O)c2ccc(Cl)cc2)CC1 [MK-0752] | 95.7% |

Same assay, conditions: 10000 nM; incubation time: 72 h

| SMILES | normalised viability |
| --- | --- |
| Nc1nc(Cl)nc2c1ncn2[C@@H]1O[C@H](CO)[C@@H](O)[C@@H]1F [Clofarabine] | 50.4% |
| CCN(CC)CCOc1ccc(C(=C(Cl)c2ccccc2)c2ccccc2)cc1 [Clomifene] | 18% |
| C[C@@H]1C[C@H]2[C@@H]3CCC4=CC(=O)C=C[C@]4(C)[C@@]3(F)[C@@H](O)C[C@]2(C)[C@@]1(O)C(=O)CO [Dexamethasone] | 80.1% |
| CC(C)C(=O)Nc1ccc([N+](=O)[O-])c(C(F)(F)F)c1 [Flutamide] | 96.8% |
| NC(=O)NO [Hydroxyurea] | 95.4% |
| O=NN(CCCl)C(=O)NC1CCCCC1 [Lomustine] | 105% |

Same assay, conditions: 100000 nM; incubation time: 72 h

| SMILES | normalised viability |
| --- | --- |
| NC(=O)NO [Hydroxyurea] | 101% |

Tested on: CAL-148
Assay: as above
Settings: 0.3 nM; incubation time: 72 h
Outline: as §1

| SMILES | normalised viability |
| --- | --- |
| COc1cc2c(Oc3ccc(NC(=O)C4(C(=O)Nc5ccc(F)cc5)CC4)cc3F)ccnc2cc1OCCCN1CCOCC1 [Foretinib] | 99.8% |
| O=C(O)CC[C@H]1CC[C@@](c2cc(F)ccc2F)(S(=O)(=O)c2ccc(Cl)cc2)CC1 [MK-0752] | 99.1% |

Same assay, conditions: 3 nM; incubation time: 72 h

| SMILES | normalised viability |
| --- | --- |
| Nc1nc(Cl)nc2c1ncn2[C@@H]1O[C@H](CO)[C@@H](O)[C@@H]1F [Clofarabine] | 82.6% |
| CCN(CC)CCOc1ccc(C(=C(Cl)c2ccccc2)c2ccccc2)cc1 [Clomifene] | 88.2% |
| C[C@@H]1C[C@H]2[C@@H]3CCC4=CC(=O)C=C[C@]4(C)[C@@]3(F)[C@@H](O)C[C@]2(C)[C@@]1(O)C(=O)CO [Dexamethasone] | 93.6% |
| CC(C)C(=O)Nc1ccc([N+](=O)[O-])c(C(F)(F)F)c1 [Flutamide] | 95.5% |
| COc1cc2c(Oc3ccc(NC(=O)C4(C(=O)Nc5ccc(F)cc5)CC4)cc3F)ccnc2cc1OCCCN1CCOCC1 [Foretinib] | 97.6% |
| O=NN(CCCl)C(=O)NC1CCCCC1 [Lomustine] | 100% |
| O=C(O)CC[C@H]1CC[C@@](c2cc(F)ccc2F)(S(=O)(=O)c2ccc(Cl)cc2)CC1 [MK-0752] | 109% |

Same assay, conditions: 10 nM; incubation time: 72 h

| SMILES | normalised viability |
| --- | --- |
| COc1cc2c(Oc3ccc(NC(=O)C4(C(=O)Nc5ccc(F)cc5)CC4)cc3F)ccnc2cc1OCCCN1CCOCC1 [Foretinib] | 96.4% |
| O=C(O)CC[C@H]1CC[C@@](c2cc(F)ccc2F)(S(=O)(=O)c2ccc(Cl)cc2)CC1 [MK-0752] | 111% |

Same assay, conditions: 30 nM; incubation time: 72 h

| SMILES | normalised viability |
| --- | --- |
| Nc1nc(Cl)nc2c1ncn2[C@@H]1O[C@H](CO)[C@@H](O)[C@@H]1F [Clofarabine] | 87.8% |
| CCN(CC)CCOc1ccc(C(=C(Cl)c2ccccc2)c2ccccc2)cc1 [Clomifene] | 94.8% |
| C[C@@H]1C[C@H]2[C@@H]3CCC4=CC(=O)C=C[C@]4(C)[C@@]3(F)[C@@H](O)C[C@]2(C)[C@@]1(O)C(=O)CO [Dexamethasone] | 108% |
| CC(C)C(=O)Nc1ccc([N+](=O)[O-])c(C(F)(F)F)c1 [Flutamide] | 99.9% |
| NC(=O)NO [Hydroxyurea] | 106% |
| O=NN(CCCl)C(=O)NC1CCCCC1 [Lomustine] | 113% |

Same assay, conditions: 100 nM; incubation time: 72 h

| SMILES | normalised viability |
| --- | --- |
| Nc1nc(Cl)nc2c1ncn2[C@@H]1O[C@H](CO)[C@@H](O)[C@@H]1F [Clofarabine] | 83.3% |
| CCN(CC)CCOc1ccc(C(=C(Cl)c2ccccc2)c2ccccc2)cc1 [Clomifene] | 101% |
| C[C@@H]1C[C@H]2[C@@H]3CCC4=CC(=O)C=C[C@]4(C)[C@@]3(F)[C@@H](O)C[C@]2(C)[C@@]1(O)C(=O)CO [Dexamethasone] | 99.2% |
| CC(C)C(=O)Nc1ccc([N+](=O)[O-])c(C(F)(F)F)c1 [Flutamide] | 103% |
| O=NN(CCCl)C(=O)NC1CCCCC1 [Lomustine] | 99.4% |

Same assay, conditions: 300 nM; incubation time: 72 h

| SMILES | normalised viability |
| --- | --- |
| NC(=O)NO [Hydroxyurea] | 116% |

Same assay, conditions: 1000 nM; incubation time: 72 h

| SMILES | normalised viability |
| --- | --- |
| NC(=O)NO [Hydroxyurea] | 112% |

Tested on: CAL-51
Assay: as above
Settings: 0.3 nM; incubation time: 72 h
Outline: as §1

| SMILES | normalised viability |
| --- | --- |
| COc1cc2c(Oc3ccc(NC(=O)C4(C(=O)Nc5ccc(F)cc5)CC4)cc3F)ccnc2cc1OCCCN1CCOCC1 [Foretinib] | 99.1% |
| O=C(O)CC[C@H]1CC[C@@](c2cc(F)ccc2F)(S(=O)(=O)c2ccc(Cl)cc2)CC1 [MK-0752] | 106% |

Same assay, conditions: 3 nM; incubation time: 72 h

| SMILES | normalised viability |
| --- | --- |
| Nc1nc(Cl)nc2c1ncn2[C@@H]1O[C@H](CO)[C@@H](O)[C@@H]1F [Clofarabine] | 109% |
| CCN(CC)CCOc1ccc(C(=C(Cl)c2ccccc2)c2ccccc2)cc1 [Clomifene] | 95.6% |
| C[C@@H]1C[C@H]2[C@@H]3CCC4=CC(=O)C=C[C@]4(C)[C@@]3(F)[C@@H](O)C[C@]2(C)[C@@]1(O)C(=O)CO [Dexamethasone] | 106% |
| CC(C)C(=O)Nc1ccc([N+](=O)[O-])c(C(F)(F)F)c1 [Flutamide] | 118% |
| COc1cc2c(Oc3ccc(NC(=O)C4(C(=O)Nc5ccc(F)cc5)CC4)cc3F)ccnc2cc1OCCCN1CCOCC1 [Foretinib] | 88.6% |
| O=NN(CCCl)C(=O)NC1CCCCC1 [Lomustine] | 110% |
| O=C(O)CC[C@H]1CC[C@@](c2cc(F)ccc2F)(S(=O)(=O)c2ccc(Cl)cc2)CC1 [MK-0752] | 101% |

Same assay, conditions: 10 nM; incubation time: 72 h

| SMILES | normalised viability |
| --- | --- |
| COc1cc2c(Oc3ccc(NC(=O)C4(C(=O)Nc5ccc(F)cc5)CC4)cc3F)ccnc2cc1OCCCN1CCOCC1 [Foretinib] | 95.2% |
| O=C(O)CC[C@H]1CC[C@@](c2cc(F)ccc2F)(S(=O)(=O)c2ccc(Cl)cc2)CC1 [MK-0752] | 98.8% |

Same assay, conditions: 30 nM; incubation time: 72 h

| SMILES | normalised viability |
| --- | --- |
| Nc1nc(Cl)nc2c1ncn2[C@@H]1O[C@H](CO)[C@@H](O)[C@@H]1F [Clofarabine] | 102% |
| CCN(CC)CCOc1ccc(C(=C(Cl)c2ccccc2)c2ccccc2)cc1 [Clomifene] | 90.3% |
| C[C@@H]1C[C@H]2[C@@H]3CCC4=CC(=O)C=C[C@]4(C)[C@@]3(F)[C@@H](O)C[C@]2(C)[C@@]1(O)C(=O)CO [Dexamethasone] | 91.9% |
| CC(C)C(=O)Nc1ccc([N+](=O)[O-])c(C(F)(F)F)c1 [Flutamide] | 108% |
| NC(=O)NO [Hydroxyurea] | 103% |
| O=NN(CCCl)C(=O)NC1CCCCC1 [Lomustine] | 109% |

Same assay, conditions: 100 nM; incubation time: 72 h

| SMILES | normalised viability |
| --- | --- |
| Nc1nc(Cl)nc2c1ncn2[C@@H]1O[C@H](CO)[C@@H](O)[C@@H]1F [Clofarabine] | 108% |
| CCN(CC)CCOc1ccc(C(=C(Cl)c2ccccc2)c2ccccc2)cc1 [Clomifene] | 98.9% |
| C[C@@H]1C[C@H]2[C@@H]3CCC4=CC(=O)C=C[C@]4(C)[C@@]3(F)[C@@H](O)C[C@]2(C)[C@@]1(O)C(=O)CO [Dexamethasone] | 95.6% |
